Measured values as given in US20190046649A1, “DELIVERY DEVICE AND USE THEREOF FOR LOADING CELL PLASMA MEMBRANES” (UNIVERSITY OF MARYLAND, BALTIMORE COUNTY, priority 2017, published 2019).
No end group written: not given here.

Experiments:
[1] = tested on: bystander B cells (TLR2); assay: TLR2 ligand-depoted T cells co-cultured with bystander B cells, activation markers by flow cytometry; type: cell-based, mouse
Protocol: (§1) A) Splenic immune cells were depoted with 10 μg/ml of Pam2CSK4 for 1 h. Depoted cells were resting for up to 1 h versus nondepoted cells with addition of 100 ng/ml of soluble Pam2CSK4. Phosphorylated p38 was measured compared to negative controls by western blotting. n=2 independent experiments. Data depict m±s.d. B) Isolated T-cells were depoted with TLR2 ligand and MFI of activation markers, MHCII and CD69, on bystander B-cells were measured after 2-day culture by flow cytometry and normalized to unstimulated B-cells (fold MFI). n=5-6 independent experiments, one-way ANOVA with Kruskal-Wallis test. Data depict m±s.d. C) Splenocytes were cultured in 2 μg/ml of Concanavalin A and 10 ng/ml of IL-7 for 2 days, and isolated T-cells were then TLR2 ligand-depoted for 1 hour. Depoted T-cells were then resting for 0 h, 3 h, 24 h, or 48 h, before T-cells were chemically fixed and co-cultured for 2 days with CD45.1^+ bystander B-cells. Bystander B-cells were used as a reporter to determine TLR2 ligand surface persistence on depoted T-cells by their fold MFI of MHCII and CD69. n=5 independent experiments. Data depict m±s.d.
A) Pam2CSK4-biotin at indicated concentrations was depoted into CD3+CD8+ or CD3+CD8− T-cells and stained with streptavidin (SAV) PE as determined by flow cytometry. B) Paracrine signaling of resting vs Concanavalin A/IL-7-activated TLR2 ligand-depoted CD8+ T-cells. Activated CD8+ T-cells were isolated from splenocytes cultured in 2 μg/ml of Concanavalin A and 10 ng/ml of IL-7 for 2 days. TLR2 ligand was depoted and processed by CD8+ T-cells for 0 h, 3 h, 6 h, 24 h, or 48 h, before T-cells were chemically fixed and cultured for 2 days with bystander B-cells to determine fold MFI intensity of MHC II, CD69, and CD86 (C).
CD45.1+ B cells were depoted with lipo-CpG, CpG, or nothing. These were cultured alone or 1:1 mixed with bystander (no depot) CD45.1− B cells. B cell activation was shown as fold intensity CD86 measured by flow cytometry after 3 d. B) CD8+ T cells were depoted with Pam2CSK4 or nothing, and then co-cultured 1:1 with bystander CD45.1+ B cells for 3 d. B cell activation was measured by CD86 and compared to a continuous exposure Pam2CSK4 control. […]
After determining that depoting was a robust process, the function of depoted Pam2CSK4 to activate neighboring immune cells was tested. Depoted T cells were co-cultured with responders (B cells) and the expression of activation markers was determined after 2 days of co-culture at a 1:1 T cell:B cell ratio.
In FIG. 11, Pan T cells were isolated from mice and either left alone (blue, red) or depoted with Pam2CSK4 for 1 h (green). […] Expression levels of activation markers were analyzed by flow after 2 days and fluorescence intensity normalized to B cells activated with polyclonal stimulus. […]

[2] = tested on: T-cells; assay: Insertion (depoting) of TLR2 ligands into cell membranes and intracellular localisation; type: cell-based, murine
Protocol: A) Structure of synthesized lipo-ligand, which are diacyl 18-carbon tails conjugated to: unmethylated CpG oligonucleotide ([…]) (SEQ ID NO: 1), or a poly(ethylene) glycol (PEG) linker plus a melanoma antigen, GP10025-33 (KVPRNQDWL) (SEQ ID NO: 2). B) Schematic of lipo-ligand depoting into cell membrane surface. C-D, CD4+ and CD8+ T-cells are identified by flow cytometry and median fluorescence intensity (MFI) of labeled ligand is determined on each cell subset as a function of time and ligand concentration. C) Fluoroscein (FAM)-labeled lipo-CpG, a TLR9 ligand, depoted into murine splenic immune cells. D) Pam2CSK4, a TLR2 ligand, depoted into murine splenic immune cells. E) MFI of lipo-GP100 is determined by flow cytometry as a function of cell density and depot volume. F-G, Isolated T-cells are depoted by varying depot time or ligand concentration, and quantified as average number of ligand per T-cell by enzyme-linked immunosorbant assay (ELISA) F) Lipo-CpG depoted into isolated T-cells. G) Pam2CSK4 and Pam3CSK4, another TLR2 ligand, respectively depoted into isolated T-cells. H) Average number of each respective ligand per splenic immune cell after 1 hour depot. n=3-5 independent experiments. Data depict m±s.d.
as §1, with “Depoted T-cells were then resting for 0 h, 3 h, 24 h, or 48 h, before T-cells were chemically fixed and co-cultured for 2 days with CD45.1^+ bystander B-cells. Bystander B-cells were used as a reporter to determine TLR2 ligand surface persistence on depoted T-cells by their fold MFI of MHCII and CD69. n=5 independent experiments. Data depict m±s.d.” left out

[3] = tested on: CD8+ T cells with B16F10 tumor cells; assay: Proliferation of depoted CD8+ T cells with αCD3/28 beads in the presence of immunosuppressive tumor cells; type: cell-based, murine; settings: 3 days coculture with αCD3/28 beads
Protocol: A) Flow cytometry histograms showing CFSE dilution of CD8^+ T-cells after 3-day stimulation with ratios of 1:1 αCD3/CD28 beads and 1:5 B16F10 tumor cells (blue text). T-Cells were cultured with 10 μg/ml of soluble Pam2CSK4 or Pam3CSK4 either alone or in combination with 5 μM of soluble lipo-CpG (solid fill), or depoted with the same respective combinations (tinted fill). B) Quantification of percent of CD8^+ T-cells that divided >5 times compared to undivided CD8^+ T-cells as measured by CF SE dilution from flow cytometry. C) IL-2 production from CD8^+ T-cell supernatents after 3 days of proliferation. n=1 independent experiment.
The proliferative capacity of depoted CD8+ T cells was evaluated after 3 days of coculture with αCD3/28 beads in the presence or absence of immunosuppressive tumor cells.

[4] = tested on: CD8+ T cells; assay: Proliferation of depoted T cells after 3 d stimulation with 1:1 anti-CD3/28 beads (CFSE dilution); type: cell-based, murine; settings: 1:1 beads
Protocol: T-Cells were cultured with 5 μM of soluble lipo-CpG or depoted with lipo-CpG, and CFSE dilution was measured by flow cytometry. B) Quantification of division index of CD4^+ T-cells as measured by CFSE dilution from flow cytometry. n=3 independent experiments, one-way ANOVA with Krustal-Wallis test. *p<0.05 between the unstim condition.
CD45.1+ B cells were depoted with lipo-CpG, CpG, or nothing. These were cultured alone or 1:1 mixed with bystander (no depot) CD45.1− B cells. B cell activation was shown as fold intensity CD86 measured by flow cytometry after 3 d. B) CD8+ T cells were depoted with Pam2CSK4 or nothing, and then co-cultured 1:1 with bystander CD45.1+ B cells for 3 d. B cell activation was measured by CD86 and compared to a continuous exposure Pam2CSK4 control. C) Representative histograms showing CFSE dilution (proliferation) of CD8+ T cells after 3 d stimulation with 1:1 anti-CD3/28 beads. Where indicated, cells were depoted or cultured with continuous soluble lipo-CpG (left) or Pam2CSK4 (right). Bars=median, whiskers=range; n=3.
B cells depoted with lipo-CpG had sustained activation up to 3 d (FIG. 10 A). […] The ability of a surface sensed lipo-Av to activate neighboring cells was also tested, using Pam2CSK4 which engages surface TLR2.

[5] = tested on: resting memory CD4+ T cells; settings: cited from earlier work
[6] = tested on: cognate CD8+ T-cells; assay: Antigen presentation by lipo-GP100-depoted B-cells to cognate CD8+ T-cells (T-cell proliferation, CFSE dilution); type: cell-based, murine
Protocol: A) Activated B-cells were isolated from splenocytes and cultured with 1 μg/ml TLR7 ligand R848 and αIgM antibody for 2 days. Resting versus activated B-cells were depoted with lipo-GP100-FAM for 1 hour. Lipo-GP100-FAM and forward scatter fold increase was measured by flow cytometry. B) LipoGP100-depoted resting B-cells presented to and proliferated cognate CD8^+ T-cells at 33 μM of 1 h depoted lipo-GP100 after 3-day culture as measured by CFSE dilution with flow cytometry. Indicated values are percent CD8^+ T-cells that divided at least once. C) BMDCs were cultured with 20 ng/ml of GM-CSF for 7 days before harvested and either depoted with 33 μM of lipo-GP100 or pulsed with 33 μM of short GP100 (KVPRNQDWL) (SEQ ID NO: 2) peptide, along with resting B-cells. These modified APCs were co-cultured with pmel-1 GP100-specific CD8^+ T-cells for 3 days to determine pmel-1 T-cell proliferation by flow cytometry. n=1 independent experiment.
Antigen processing in APC B-cells by A) endocytosis, B) direct binding affinity on APC surface, or C) depoting. 33 uM of indicated GP100 antigen is conferred to APC B-cells for 1 h, then processed by B-cells in aforementioned antigen processing mechanisms for 0 h, 3 h, or 16 h, before B-cells are chemically fixed and cultured with cognate CD8^+ T-cells for 3 days to determine T-cell proliferation. n=1 independent experiment.
An diacyl (C18) lipid-conjugated ligands (lipo-ligands) was engineered that can be depoted into cell membranes in a time- and concentration-dependent fashion for precise and robust delivery up to 241.5±9.6 (mean±SD) fold increase compared to nondepoted cells. […] B) Representative histograms of fluorescein-labeled (FAM-labeled) lipo-GP100 fluorescence on B-cell surface as functions of depot time and lipo-GP100 concentration measured by flow cytometry. Median fluorescence intensity (MFI) of lipo-GP100 FAM fold increase on B-cells from non-depoted B-cells by flow cytometry. […]

Row | Substance | B cell activation by depoted CD8+ T cells relative to continuous exposure control ([1]; 1:1 co-culture 3 d, CD86) | duration of trans signaling and activation of B cells by depoted CD8+ T cells ([1]; 1:1 co-culture, CD86) | activation of neighboring responder B cells by depoted T cells relative to soluble ligand ([1]; 2 days co-culture, 1:1 T cell:B cell ratio, depoted 1 h) | persistence of bystander-activating activity of depoted T cells ([1]; data not shown) | insertion into cell membranes [2] | intracellular localisation by microscopy ([2]; 24 h post-depoting) | proliferative capacity of depoted T cells in the presence of tumor cells [3] | effect of depoting on CD8+ T cell proliferation in response to αCD3/28 beads [4] | HIV latency reactivation ("shock") activity [5] | manner of antigen presentation by APC B-cells to cognate CD8+ T-cells ([6]; 33 uM antigen 1 h, processed 0 h, 3 h or 16 h, fixed, 3-day culture) | B-cells as APCs versus BMDCs presenting antigen, MHCI-restricted ([6]; 33 μM depoted, 3-day co-culture with pmel-1 CD8+ T-cells) | duration of antigen presentation from B-cells to cognate CD8+ T-cells ([6]; GP100 25-33 antigen delivered by depoting)
1 | Pam2CSK4 | nearly matching continuously exposed control | 3 days | nearly equivalent to high doses of Pam2CSK4 in solution | persists for multiple days | can be rapidly inserted into cell membranes | colocalizing with early endosome antigen 1 (EEA1) | recovered proliferative capacity in the presence of tumor cells | did not |  |  |  | 
2 | Pam3CSK4 |  |  |  |  | can be rapidly inserted into cell membranes |  | recovered proliferative capacity in the presence of tumor cells |  | effective “shock” agent |  |  | 
3 | lipo-GP100: diacyl 18-carbon tails conjugated to a PEG linker plus melanoma antigen GP10025-33 (KVPRNQDWL) (SEQ ID NO: 2) (also: diacyl C18 lipid tails via PEG linker, site not given here) |  |  |  |  |  |  |  |  |  | delayed and prolonged manner | comparable to bone marrow derived cells (BMDCs) | > 16 h
